# Calls of active or inactive are those of the source.
# Legend:
# [1] = target: Peroxisome proliferator-activated receptor gamma/Nuclear receptor coactivator 2 (Homo sapiens, UniProt P37231); format: functional;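 further: agonist potency for raising coactivator recruitment to the receptor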
# [2] = target: Peroxisome proliferator-activated receptor gamma/Nuclear receptor coactivator 1 (Homo sapiens, UniProt P37231); format: functional;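 further: agonist potency as compounds enhance coactivator SRC-1 recruitment to PPARgamma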
# [3] = target: Peroxisome proliferator-activated receptor gamma/Nuclear receptor coactivator 3 (Homo sapiens, UniProt P37231); format: functional;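 further: agonist potency for raising coactivator recruitment to the receptor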
# Chain of Peroxisome proliferator-activated receptor gamma/Nuclear receptor coactivator 3 (P37231 whole entry): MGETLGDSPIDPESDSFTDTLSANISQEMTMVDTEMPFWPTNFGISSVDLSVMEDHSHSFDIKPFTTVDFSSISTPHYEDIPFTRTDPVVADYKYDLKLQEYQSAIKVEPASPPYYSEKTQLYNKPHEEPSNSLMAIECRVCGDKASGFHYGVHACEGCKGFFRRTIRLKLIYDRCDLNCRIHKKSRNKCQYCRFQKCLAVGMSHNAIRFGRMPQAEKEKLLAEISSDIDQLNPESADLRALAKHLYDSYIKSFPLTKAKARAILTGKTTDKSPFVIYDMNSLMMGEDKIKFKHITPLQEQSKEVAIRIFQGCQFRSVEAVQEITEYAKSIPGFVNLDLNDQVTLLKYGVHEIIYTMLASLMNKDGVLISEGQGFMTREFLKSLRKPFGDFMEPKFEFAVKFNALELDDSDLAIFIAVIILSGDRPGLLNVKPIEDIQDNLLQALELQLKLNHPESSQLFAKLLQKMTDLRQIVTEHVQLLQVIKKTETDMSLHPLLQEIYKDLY
# Chain of Peroxisome proliferator-activated receptor gamma/Nuclear receptor coactivator 3 (Q9Y6Q9 whole entry, further chain): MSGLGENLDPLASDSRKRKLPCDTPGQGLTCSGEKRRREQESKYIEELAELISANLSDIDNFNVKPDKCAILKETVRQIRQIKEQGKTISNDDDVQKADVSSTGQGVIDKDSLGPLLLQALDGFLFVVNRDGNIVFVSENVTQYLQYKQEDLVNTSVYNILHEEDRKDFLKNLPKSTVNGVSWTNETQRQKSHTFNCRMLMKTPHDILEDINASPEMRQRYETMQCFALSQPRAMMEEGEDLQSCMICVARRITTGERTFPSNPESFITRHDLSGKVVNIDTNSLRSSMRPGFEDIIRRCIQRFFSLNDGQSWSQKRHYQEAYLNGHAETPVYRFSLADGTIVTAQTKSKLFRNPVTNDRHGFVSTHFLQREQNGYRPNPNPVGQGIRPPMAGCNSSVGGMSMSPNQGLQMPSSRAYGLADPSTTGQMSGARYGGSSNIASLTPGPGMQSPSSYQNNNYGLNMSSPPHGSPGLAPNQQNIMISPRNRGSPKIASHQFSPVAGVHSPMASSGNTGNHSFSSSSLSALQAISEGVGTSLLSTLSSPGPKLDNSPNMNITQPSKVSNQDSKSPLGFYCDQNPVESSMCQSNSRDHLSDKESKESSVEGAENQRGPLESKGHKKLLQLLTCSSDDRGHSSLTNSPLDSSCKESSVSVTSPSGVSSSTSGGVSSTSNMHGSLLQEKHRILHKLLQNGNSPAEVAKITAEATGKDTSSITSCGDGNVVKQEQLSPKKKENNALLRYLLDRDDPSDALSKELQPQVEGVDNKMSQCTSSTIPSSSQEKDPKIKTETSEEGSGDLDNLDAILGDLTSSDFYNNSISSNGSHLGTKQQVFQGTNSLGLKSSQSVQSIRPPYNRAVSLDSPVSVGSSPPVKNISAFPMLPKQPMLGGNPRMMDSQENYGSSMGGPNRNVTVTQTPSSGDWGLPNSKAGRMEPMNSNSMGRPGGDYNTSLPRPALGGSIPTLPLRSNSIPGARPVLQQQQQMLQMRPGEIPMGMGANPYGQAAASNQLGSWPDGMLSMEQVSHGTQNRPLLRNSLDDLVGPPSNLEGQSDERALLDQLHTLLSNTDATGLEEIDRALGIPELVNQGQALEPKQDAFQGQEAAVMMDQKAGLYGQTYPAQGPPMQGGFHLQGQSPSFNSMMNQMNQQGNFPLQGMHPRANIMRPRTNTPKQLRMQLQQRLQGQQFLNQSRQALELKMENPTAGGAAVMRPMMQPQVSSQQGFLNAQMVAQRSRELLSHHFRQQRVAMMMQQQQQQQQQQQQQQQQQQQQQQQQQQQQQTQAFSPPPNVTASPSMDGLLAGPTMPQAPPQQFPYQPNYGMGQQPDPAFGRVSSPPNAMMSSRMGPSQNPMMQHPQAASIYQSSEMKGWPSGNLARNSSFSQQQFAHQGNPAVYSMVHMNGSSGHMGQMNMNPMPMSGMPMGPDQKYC
# Troponin, cardiac muscle = Troponin, cardiac muscle (Homo sapiens, UniProt P19429+P45379+P63316); experiment: Fluorescence-based biochemical high throughput dose response assay for activators of the calcium sensitivity of cardiac Regulated Thin Filaments (RTF). [Related pubchem assays (depositor defined):AID493008, AID493018, AID504382, AID504383]; format: protein-complex assay
# cells [4] = format: functional, cell-based
# cells [5] = format: functional, cell-based; remark: listed apart in the source
# [6] = target: T1, Type-1 angiotensin II receptor (Homo sapiens, UniProt P30556); experiment: agonist activity at AGTR1 – cell-based, uHTS hits, selectivity assay for APJ receptor agonist project, dose response (AID 488865); format: functional;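 further: beta-arrestin recruitment to AT1 measured by enzyme fragment complementation luminescence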
# T1 sequence (P30556 whole entry): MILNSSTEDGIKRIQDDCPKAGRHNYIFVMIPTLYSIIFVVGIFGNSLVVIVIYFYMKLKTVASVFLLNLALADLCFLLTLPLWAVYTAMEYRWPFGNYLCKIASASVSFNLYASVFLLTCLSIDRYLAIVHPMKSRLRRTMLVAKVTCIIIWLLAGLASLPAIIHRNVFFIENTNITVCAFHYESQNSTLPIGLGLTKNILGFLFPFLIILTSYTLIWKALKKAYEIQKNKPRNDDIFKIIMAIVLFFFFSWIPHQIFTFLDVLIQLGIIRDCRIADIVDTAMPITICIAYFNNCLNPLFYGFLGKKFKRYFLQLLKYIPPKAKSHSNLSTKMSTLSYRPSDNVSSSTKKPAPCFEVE
# H9c2 = experiment: cells; format: functional, cell-based; conditions: Rattus norvegicus, H9c2, Myocardium;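 further: confirmatory concentration-response retest of ultra-high-throughput screening hits for modulation of myocardial damage; cell death induced by hydrogen peroxide oxidative stress; compound pretreatment for 60 min then peroxide exposure for 2 h; potency is for protecting the cells against peroxide damage rather than for killing them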
# [7] = A549 cell cytotoxicity, dose response, cytotoxicity control, plate reader, cherry-pick, antagonist series (AID 743412); format: functional, cell-based
# [8] = toxicity toward HepG2 liver cells – cell-based, plate reader, cherry-pick, antagonist series, cytotoxicity control, dose response (AID 743416); format: functional
# [9] = blockers of bursicon-stimulated LGR2 cAMP reporter – cell-based, HEK293, CRE-luciferase reporter, cherry pick, set 2, dose response (AID 743343); format: functional;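 further: transfected cells were stimulated with diluted bursicon conditioned medium after compound addition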
# [10] = blockade of melanocortin 4 receptor signaling – cell-based, plate reader, cherry pick, counter-screen for LGR2 antagonist project, dose response (AID 743444); format: functional;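 further: transfected HEK 293 cells stimulated with alpha-MSH peptide; potency of inhibitors of the alpha-MSH evoked signal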
# SUMO-activating enzyme [11] = target: T2, SUMO-activating enzyme (Homo sapiens, UniProt Q9UBT2); experiment: blockers of UBC9-mediated SUMO conjugation – biochemical, AlphaScreen, SUMOylation inhibitor project, confirmation (AID 2018); format: functional
# T2 sequence (Q9UBE0 whole entry): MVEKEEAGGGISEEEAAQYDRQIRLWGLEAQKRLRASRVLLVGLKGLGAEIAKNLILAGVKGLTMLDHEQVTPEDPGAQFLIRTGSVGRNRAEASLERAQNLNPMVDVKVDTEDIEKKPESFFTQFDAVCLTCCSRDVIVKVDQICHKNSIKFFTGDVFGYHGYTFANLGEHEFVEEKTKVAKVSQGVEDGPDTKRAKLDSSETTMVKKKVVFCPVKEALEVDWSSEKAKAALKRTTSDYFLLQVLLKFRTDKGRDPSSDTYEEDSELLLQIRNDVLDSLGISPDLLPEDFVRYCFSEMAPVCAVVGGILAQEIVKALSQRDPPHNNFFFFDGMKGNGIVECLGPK
# T2 sequence (Q9UBT2 whole entry): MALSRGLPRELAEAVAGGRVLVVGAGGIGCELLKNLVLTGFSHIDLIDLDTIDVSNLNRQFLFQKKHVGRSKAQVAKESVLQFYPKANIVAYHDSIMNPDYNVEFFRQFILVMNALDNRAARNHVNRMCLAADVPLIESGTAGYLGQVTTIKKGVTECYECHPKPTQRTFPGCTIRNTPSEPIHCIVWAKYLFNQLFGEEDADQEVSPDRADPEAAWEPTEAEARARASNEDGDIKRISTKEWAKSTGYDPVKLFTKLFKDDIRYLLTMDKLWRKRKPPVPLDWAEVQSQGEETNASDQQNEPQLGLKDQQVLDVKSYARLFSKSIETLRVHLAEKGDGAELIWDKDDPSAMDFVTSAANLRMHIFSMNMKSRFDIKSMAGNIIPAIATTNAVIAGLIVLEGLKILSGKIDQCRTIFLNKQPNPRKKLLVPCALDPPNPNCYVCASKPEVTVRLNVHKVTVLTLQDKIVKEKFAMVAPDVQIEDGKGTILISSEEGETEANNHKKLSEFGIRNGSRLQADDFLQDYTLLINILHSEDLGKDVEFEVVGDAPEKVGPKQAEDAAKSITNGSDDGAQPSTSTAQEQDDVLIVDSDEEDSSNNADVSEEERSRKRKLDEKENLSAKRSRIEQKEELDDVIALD
# SUMO-activating enzyme [12] = target: T2, SUMO-activating enzyme; experiment: blockers of SAE1/SAE2–UBC9 SUMO transfer – biochemical, HTRF, uHTS, primary screen (AID 2006); format: protein-complex assay
# [13] = target: Eukaryotic translation initiation factor 4E (Mus musculus, UniProt P63073); experiment: blockers of eIF4G binding by eIF4E – biochemical, TR-FRET, dose response (AID 855); format: functional;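 further: potency for disrupting eIF4E binding to eIF4GI seen as loss of FRET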
# Chain of Eukaryotic translation initiation factor 4E (P63073 whole entry): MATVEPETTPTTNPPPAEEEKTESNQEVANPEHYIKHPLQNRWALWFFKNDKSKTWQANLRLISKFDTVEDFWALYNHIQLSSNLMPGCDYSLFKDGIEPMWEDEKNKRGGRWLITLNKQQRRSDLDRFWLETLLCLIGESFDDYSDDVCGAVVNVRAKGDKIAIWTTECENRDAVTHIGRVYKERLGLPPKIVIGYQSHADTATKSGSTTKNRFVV
# [14] = target: T3, Long-chain-fatty-acid--AMP ligase FadD28 (Mycobacterium tuberculosis, UniProt P9WQ59); experiment: Fluorescence polarization aasay to screen for inhibitors that compete for the binding of FadD28 to a bisubstrate Measured in Biochemical System Using Plate Reader - 2147-01_Inhibitor_Dose_CherryPick_Activity.; format: functional, Mycobacterium tuberculosis H37Rv
# T3 sequence (P9WQ59 whole entry): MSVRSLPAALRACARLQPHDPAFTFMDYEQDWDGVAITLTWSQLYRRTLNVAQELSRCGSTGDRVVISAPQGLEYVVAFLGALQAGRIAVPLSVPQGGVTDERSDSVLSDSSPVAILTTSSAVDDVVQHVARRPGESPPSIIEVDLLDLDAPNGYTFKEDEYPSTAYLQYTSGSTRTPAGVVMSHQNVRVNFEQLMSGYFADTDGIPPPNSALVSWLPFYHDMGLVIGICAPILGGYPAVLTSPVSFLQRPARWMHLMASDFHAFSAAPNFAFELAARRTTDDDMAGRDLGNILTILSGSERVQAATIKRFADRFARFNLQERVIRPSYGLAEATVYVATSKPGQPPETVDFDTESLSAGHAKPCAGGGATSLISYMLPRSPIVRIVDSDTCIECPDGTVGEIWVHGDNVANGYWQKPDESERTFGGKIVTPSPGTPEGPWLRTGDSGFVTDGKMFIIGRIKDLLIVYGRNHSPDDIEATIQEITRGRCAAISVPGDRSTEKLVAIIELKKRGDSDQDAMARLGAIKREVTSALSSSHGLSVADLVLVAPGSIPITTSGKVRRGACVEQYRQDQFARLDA
# [15] = target: T4, E3 ubiquitin-protein ligase XIAP (Homo sapiens, UniProt P98170); experiment: Counter Screen using XIAP-Bir3 for Chemical Antagonists of Bir1/2 domains of IAP-family anti-apoptotic proteins. [Related pubchem assays (depositor defined):AID1018, AID1449, AID1514, AID1638, AID1749, AID1750, AID488957, AID488963]
# T4 sequence (P98170 whole entry): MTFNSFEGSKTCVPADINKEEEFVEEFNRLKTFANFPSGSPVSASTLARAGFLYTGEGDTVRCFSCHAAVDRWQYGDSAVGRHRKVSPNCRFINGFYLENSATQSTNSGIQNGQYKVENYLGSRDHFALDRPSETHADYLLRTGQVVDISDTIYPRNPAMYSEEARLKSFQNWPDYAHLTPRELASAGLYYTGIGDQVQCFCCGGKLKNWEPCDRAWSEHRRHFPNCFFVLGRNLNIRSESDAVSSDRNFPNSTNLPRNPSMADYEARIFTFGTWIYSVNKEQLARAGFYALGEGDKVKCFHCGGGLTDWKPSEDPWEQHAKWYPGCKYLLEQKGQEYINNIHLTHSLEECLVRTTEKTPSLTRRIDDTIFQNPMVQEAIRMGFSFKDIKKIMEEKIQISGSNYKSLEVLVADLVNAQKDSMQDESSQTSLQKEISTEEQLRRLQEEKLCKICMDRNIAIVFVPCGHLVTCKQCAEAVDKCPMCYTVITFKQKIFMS
# [16] = target: T4, E3 ubiquitin-protein ligase XIAP; experiment: small molecules displacing peptide from XIAP – biochemical, IAP family, fluorescence polarization (AID 1018); format: functional
# [17] = target: G-protein coupled receptor 55 (Homo sapiens, UniProt Q9Y2T6); experiment: selective activators of receptor GPR55 – imaging, U2OS cells, beta-arrestin-GFP redistribution, primary screen (AID 1961); format: functional
# Chain of G-protein coupled receptor 55 (Q9Y2T6 whole entry): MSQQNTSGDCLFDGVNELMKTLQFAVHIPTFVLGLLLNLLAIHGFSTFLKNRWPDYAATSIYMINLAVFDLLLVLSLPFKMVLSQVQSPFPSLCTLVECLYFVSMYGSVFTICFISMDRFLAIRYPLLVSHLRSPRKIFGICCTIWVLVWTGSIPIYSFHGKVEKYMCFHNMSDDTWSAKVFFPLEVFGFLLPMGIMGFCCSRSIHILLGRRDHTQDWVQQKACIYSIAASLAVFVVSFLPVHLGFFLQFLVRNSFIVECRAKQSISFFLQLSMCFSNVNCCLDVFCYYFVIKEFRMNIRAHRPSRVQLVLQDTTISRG
smiles,measurement,setting,value
Cn1nc(-c2ccccc2)c(C(=O)Nc2ccc(C(F)(F)F)cc2)c1Cl,EC50,[1],> 79.4 µM (not active)
same,EC50,[2],> 79.4 µM (not active)
same,EC50,[3],> 79.4 µM (not active)
same,EC50,"Troponin, cardiac muscle",> 71.5 µM (inactive)
CC(C)C(=O)N1CCN(c2ccc(NC(=O)COc3ccccc3[N+](=O)[O-])cc2)CC1,EC50,cells [4],> 350 µM (not active)
same,EC50,cells [5],> 350 µM (not active)
same,EC50,[6],> 100 µM (inactive)
same,IC50,H9c2,> 79 µM (inactive)
same,AC50,[7],> 52 µM (inactive)
same,AC50,[8],41.7 µM (active)
same,AC50,[9],31.2 µM (active)
same,AC50,[10],20 µM (active)
Cc1ccc(NC(=O)CN2C(=O)S/C(=C\c3ccc(-c4cccc(C(=O)O)c4C)o3)C2=O)cc1C,IC50,SUMO-activating enzyme [11],6.11 µM (active)
same,IC50,SUMO-activating enzyme [12],6.48 µM (active)
same,IC50,[13],27.9 µM (active)
same,AC50,[14],52.8 µM (active)
Cc1ccc(NS(=O)(=O)c2cc(C(=O)N(C)C)ccc2C)cc1C,IC50,[15],> 100 µM (inactive)
same,IC50,[16],> 100 µM (not active)
CCC(C)NC(=O)C(=O)NC1CCCC1 (stereo unspecified),IC50,[15],> 100 µM (inactive)
same,IC50,[16],> 100 µM (not active)
Cc1cc(C)c(/C=N/NC(=O)c2nnn(-c3nonc3N)c2CN2CCC(C)CC2)c(C)c1,EC50,[17],8.18 µM (active)

# From ChEMBL document CHEMBL1201862, “PubChem BioAssay data set” (2004)
